Reference: patent publication US20230148214A1, “INDAZOLES AND AZAINDAZOLES AS LRRK2 INHIBITORS” (ESCAPE Bio, Inc., priority 2020, published 2023)

Target: T1, LRRK2 WT (Homo sapiens, UniProt Q5S007)
T1 construct: purchased Life Technologies PR8604B
Test: LRRK2 Kinase Activity Assay (LanthaScreen TR-FRET), wild type
Format: biochemical
Conditions: recombinant wild type LRRK2, 25 μM ATP, 400 nM LRRKtide, 60 min; class symbols
Description: LRRK2 kinase activity was measured using a LanthaScreen™ Kinase Activity Assay from ThermoFisher Scientific. Recombinant wild type or G2019S-LRRK2 protein (Life Technologies, PR8604B or PV4881, respectively), was incubated with a fluorescein-labeled peptide substrate called LRRKtide that is based upon ezrin/radixin/moesin (ERM) (Life Technologies, PV4901) in the presence of ATP and serially diluted compound. […] Compound-dependent inhibition of the TR-FRET signal was used to generate a concentration-response curve for IC50 determination.
After 60 min incubation at room temperature, the reaction was stopped by addition of 10 μL of 2×stop solution containing a final concentration of 2 nM anti-pERM antibody and 10 mM EDTA.

T1 sequence (Q5S007 whole entry): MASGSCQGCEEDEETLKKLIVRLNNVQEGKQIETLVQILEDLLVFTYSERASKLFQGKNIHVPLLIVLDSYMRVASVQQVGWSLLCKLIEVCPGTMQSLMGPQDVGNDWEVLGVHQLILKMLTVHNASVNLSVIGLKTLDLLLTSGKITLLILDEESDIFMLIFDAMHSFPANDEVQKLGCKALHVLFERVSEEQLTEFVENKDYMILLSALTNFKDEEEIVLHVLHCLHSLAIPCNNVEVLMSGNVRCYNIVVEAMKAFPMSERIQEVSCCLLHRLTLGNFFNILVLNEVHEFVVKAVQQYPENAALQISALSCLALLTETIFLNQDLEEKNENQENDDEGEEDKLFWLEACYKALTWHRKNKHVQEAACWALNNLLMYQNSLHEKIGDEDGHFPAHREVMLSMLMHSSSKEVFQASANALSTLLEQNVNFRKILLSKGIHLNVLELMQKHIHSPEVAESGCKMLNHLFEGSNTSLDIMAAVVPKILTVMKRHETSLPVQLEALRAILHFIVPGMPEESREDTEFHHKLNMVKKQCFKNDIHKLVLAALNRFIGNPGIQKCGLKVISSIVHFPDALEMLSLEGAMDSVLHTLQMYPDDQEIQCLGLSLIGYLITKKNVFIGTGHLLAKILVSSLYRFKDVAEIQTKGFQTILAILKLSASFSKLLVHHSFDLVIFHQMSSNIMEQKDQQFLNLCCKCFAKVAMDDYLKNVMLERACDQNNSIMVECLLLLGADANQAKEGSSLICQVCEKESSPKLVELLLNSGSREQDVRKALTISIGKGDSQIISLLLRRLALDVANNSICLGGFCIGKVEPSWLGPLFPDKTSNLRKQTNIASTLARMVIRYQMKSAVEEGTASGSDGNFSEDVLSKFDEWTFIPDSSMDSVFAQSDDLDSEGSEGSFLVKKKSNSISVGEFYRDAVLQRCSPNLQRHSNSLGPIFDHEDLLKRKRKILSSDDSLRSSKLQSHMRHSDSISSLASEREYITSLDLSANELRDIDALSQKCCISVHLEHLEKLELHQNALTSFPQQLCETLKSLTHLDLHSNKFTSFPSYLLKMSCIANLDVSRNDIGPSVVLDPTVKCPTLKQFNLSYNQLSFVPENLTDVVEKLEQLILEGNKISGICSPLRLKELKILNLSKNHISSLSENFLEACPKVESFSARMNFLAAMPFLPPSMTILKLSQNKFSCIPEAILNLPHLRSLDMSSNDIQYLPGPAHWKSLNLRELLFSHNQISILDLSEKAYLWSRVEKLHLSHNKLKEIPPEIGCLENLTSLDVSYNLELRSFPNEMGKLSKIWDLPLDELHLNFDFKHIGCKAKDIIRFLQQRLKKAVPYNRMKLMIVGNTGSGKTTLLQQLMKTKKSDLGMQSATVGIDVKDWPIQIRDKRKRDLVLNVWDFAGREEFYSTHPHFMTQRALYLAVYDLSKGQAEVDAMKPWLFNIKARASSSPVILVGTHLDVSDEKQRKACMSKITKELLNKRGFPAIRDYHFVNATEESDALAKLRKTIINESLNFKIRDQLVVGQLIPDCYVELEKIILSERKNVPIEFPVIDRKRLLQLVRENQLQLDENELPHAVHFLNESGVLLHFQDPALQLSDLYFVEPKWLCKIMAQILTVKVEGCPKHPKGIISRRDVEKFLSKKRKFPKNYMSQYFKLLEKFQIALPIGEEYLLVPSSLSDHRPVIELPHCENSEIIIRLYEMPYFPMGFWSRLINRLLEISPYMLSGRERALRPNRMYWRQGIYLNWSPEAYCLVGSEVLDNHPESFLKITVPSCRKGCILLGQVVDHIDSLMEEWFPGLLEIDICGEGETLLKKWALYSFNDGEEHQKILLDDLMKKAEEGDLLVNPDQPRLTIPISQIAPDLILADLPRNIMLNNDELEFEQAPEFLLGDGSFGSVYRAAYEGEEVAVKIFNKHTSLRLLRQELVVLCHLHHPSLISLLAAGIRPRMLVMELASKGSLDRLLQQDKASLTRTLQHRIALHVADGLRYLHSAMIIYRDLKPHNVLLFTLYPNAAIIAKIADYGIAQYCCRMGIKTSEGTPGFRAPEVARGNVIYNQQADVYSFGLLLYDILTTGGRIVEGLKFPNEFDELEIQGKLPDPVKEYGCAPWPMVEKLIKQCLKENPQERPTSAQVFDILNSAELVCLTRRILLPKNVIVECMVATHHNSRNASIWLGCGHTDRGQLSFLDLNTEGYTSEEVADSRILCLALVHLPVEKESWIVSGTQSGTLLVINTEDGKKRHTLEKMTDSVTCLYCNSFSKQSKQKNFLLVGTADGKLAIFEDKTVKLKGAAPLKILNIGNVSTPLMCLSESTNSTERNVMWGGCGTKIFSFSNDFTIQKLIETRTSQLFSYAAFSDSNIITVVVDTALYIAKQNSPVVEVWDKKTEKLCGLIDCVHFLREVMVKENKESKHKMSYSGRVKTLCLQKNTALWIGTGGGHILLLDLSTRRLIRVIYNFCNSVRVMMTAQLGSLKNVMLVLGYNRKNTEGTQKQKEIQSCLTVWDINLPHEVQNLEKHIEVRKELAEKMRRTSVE

IC50 [nM] | SMILES
< 100 | N#Cc1cc2c(nc1Cl)[C@@H](Oc1ccc3[nH]nc(-c4cnco4)c3c1)CCC2 (single isomer, unassigned) [177, enantiomer 2, 2-Chloro-8-((3-(oxazol-5-yl)-1H-indazol-5-yl)oxy)-5,6,7,8-tetrahydroquinoline-3-carbonitrile]
< 100 | N#Cc1cc2c(nc1Cl)[C@@H](Oc1ccc3[nH]nc(-c4cnoc4)c3c1)CCC2 (single isomer, unassigned) [178, enantiomer 2, 2-Chloro-8-[[3-(1,2-oxazol-4-yl)-1H-indazol-5-yl]oxy]-5,6,7,8-tetrahydroquinoline-3-carbonitrile]
< 100 | N#Cc1cc2c(cc1F)[C@@H](Oc1ccc3[nH]nc(-c4cnco4)c3c1)CCC2 (single isomer, unassigned) [180, enantiomer 2, 3-Fluoro-5-[[3-(1,3-oxazol-5-yl)-1H-indazol-5-yl]oxy]-5,6,7,8-tetrahydronaphthalene-2-carbonitrile]
< 100 | N#Cc1cnc2c(n1)CC[C@@H]2Oc1ccc2[nH]nc(-c3cnco3)c2c1 (single isomer, unassigned) [182, enantiomer 2, 5-((3-(Oxazol-5-yl)-1H-indazol-5-yl)oxy)-6,7-dihydro-5H-cyclopenta[b]pyrazine-2-carbonitrile]
< 100 | N#Cc1cnc2c(c1)CCC[C@@H]2Oc1ccc2[nH]nc(-c3cnoc3)c2c1 (single isomer, unassigned) [Example 2, enantiomer 2, 8-((3-(Isoxazol-4-yl)-1H-indazol-5-yl)oxy)-5,6,7,8-tetrahydroquinoline-3-carbonitrile]
< 100 | N#Cc1ccc2c(c1)CCC2Oc1ccc2[nH]nc(-c3cnco3)c2c1 (single isomer, unassigned) [Example 3, enantiomer 2, 1-((3-(Oxazol-5-yl)-1H-indazol-5-yl)oxy)-2,3-dihydro-1H-indene-5-carbonitrile]
< 100 | N#Cc1ccc2c(c1)CC[C@@H]2Oc1ccc2[nH]nc(-c3cnn(C(F)F)c3)c2c1 (single isomer, unassigned) [Example 4, enantiomer 2, 1-((3-(1-(Difluoromethyl)-1H-pyrazol-4-yl)-1H-indazol-5-yl)oxy)-2,3-dihydro-1H-indene-5-carbonitrile]
< 100 | N#Cc1ccc2c(c1)CC[C@@H]2Oc1ccc2[nH]nc(-c3cnoc3)c2c1 (single isomer, unassigned) [Example 5, enantiomer 2, 1-((3-(Isoxazol-4-yl)-1H-indazol-5-yl)oxy)-2,3-dihydro-1H-indene-5-carbonitrile]
< 100 | N#Cc1ccc2c(c1)CC[C@@H]2Nc1ccc2[nH]nc(-c3cnoc3)c2c1 (single isomer, unassigned) [Example 8, enantiomer 2, 1-((3-(Isoxazol-4-yl)-1H-indazol-5-yl)amino)-2,3-dihydro-1H-indene-5-carbonitrile]
< 100 | N#Cc1ccc2c(c1)CC[C@@H]2Nc1ccc2[nH]nc(-c3cnco3)c2c1 (single isomer, unassigned) [Example 9, enantiomer 2, 1-((3-(Oxazol-5-yl)-1H-indazol-5-yl)amino)-2,3-dihydro-1H-indene-5-carbonitrile]
< 100 | N#Cc1ccc2c(c1)CC[C@@H]2Nc1ccc2[nH]nc(-c3ccoc3)c2c1 (single isomer, unassigned) [Example 11, enantiomer 2, 1-((3-(Furan-3-yl)-1H-indazol-5-yl)amino)-2,3-dihydro-1H-indene-5-carbonitrile]
< 100 | N#Cc1ccc2c(c1)CC[C@@H]2Nc1ccc2[nH]nc(-c3cnn(C(F)F)c3)c2c1 (single isomer, unassigned) [Example 12, enantiomer 2, 1-((3-(1-(Difluoromethyl)-1H-pyrazol-4-yl)-1H-indazol-5-yl)amino)-2,3-dihydro-1H-indene-5-carbonitrile]
< 100 | Cc1cc(C#N)cc2c1[C@@H](Oc1ccc3[nH]nc(-c4cnco4)c3c1)CC2 (single isomer, unassigned) [Example 14, enantiomer 2, 7-Methyl-1-((3-(oxazol-5-yl)-1H-indazol-5-yl)oxy)-2,3-dihydro-1H-indene-5-carbonitrile]
< 100 | N#Cc1cnc2c(c1)CCC[C@@H]2Oc1ccc2[nH]nc(-c3cnco3)c2c1 (single isomer, unassigned) [Example 16, enantiomer 2, 8-((3-(Oxazol-5-yl)-1H-indazol-5-yl)oxy)-5,6,7,8-tetrahydroquinoline-3-carbonitrile]
< 100 | N#Cc1ccc2c(c1)CCC[C@@H]2Oc1ccc2[nH]nc(-c3cnco3)c2c1 (single isomer, unassigned) [Example 18, enantiomer 2, 5-((3-(Oxazol-5-yl)-1H-indazol-5-yl)oxy)-5,6,7,8-tetrahydronaphthalene-2-carbonitrile]
< 100 | Cc1c(C#N)ccc2c1CC[C@@H]2Oc1ccc2[nH]nc(-c3cnco3)c2c1 (single isomer, unassigned) [Example 22, enantiomer 2, 4-Methyl-1-((3-(oxazol-5-yl)-1H-indazol-5-yl)oxy)-2,3-dihydro-1H-indene-5-carbonitrile]
< 100 | N#Cc1cc2c(cc1F)[C@@H](Oc1ccc3[nH]nc(-c4cnco4)c3c1)CC2 (single isomer, unassigned) [Example 23, enantiomer 2, 6-Fluoro-1-((3-(oxazol-5-yl)-1H-indazol-5-yl)oxy)-2,3-dihydro-1H-indene-5-carbonitrile]
< 100 | N#Cc1ccc2c(c1F)CC[C@@H]2Oc1ccc2[nH]nc(-c3cnco3)c2c1 (single isomer, unassigned) [Example 24, enantiomer 2, 4-Fluoro-1-((3-(oxazol-5-yl)-1H-indazol-5-yl)oxy)-2,3-dihydro-1H-indene-5-carbonitrile]
< 100 | N#Cc1cc2c(cc1F)[C@@H](Nc1ccc3[nH]nc(-c4cnco4)c3c1)CC2 (single isomer, unassigned) [Example 25, enantiomer 2, 6-Fluoro-1-((3-(oxazol-5-yl)-1H-indazol-5-yl)amino)-2,3-dihydro-1H-indene-5-carbonitrile]
< 100 | N#Cc1ccc2c(c1F)CC[C@@H]2Nc1ccc2[nH]nc(-c3cnco3)c2c1 (single isomer, unassigned) [Example 26, enantiomer 2, 4-Fluoro-1-((3-(oxazol-5-yl)-1H-indazol-5-yl)amino)-2,3-dihydro-1H-indene-5-carbonitrile]
< 100 | Cc1c(C#N)ccc2c1CC[C@@H]2Nc1ccc2[nH]nc(-c3cnco3)c2c1 (single isomer, unassigned) [Example 27, enantiomer 2, 4-methyl-1-((3-(oxazol-5-yl)-1H-indazol-5-yl)amino)-2,3-dihydro-1H-indene-5-carbonitrile]
< 100 | Cc1cc2c(cc1C#N)CC[C@@H]2Nc1ccc2[nH]nc(-c3cnco3)c2c1 (single isomer, unassigned) [Example 28, enantiomer 2, 6-Methyl-1-((3-(oxazol-5-yl)-1H-indazol-5-yl)amino)-2,3-dihydro-1H-indene-5-carbonitrile]
< 100 | Cc1cc2c(cc1C#N)CC[C@H]2Oc1ccc2[nH]nc(-c3cnco3)c2c1 (single isomer, unassigned) [Example 29, enantiomer 2, 6-Methyl-1-((3-(oxazol-5-yl)-1H-indazol-5-yl)oxy)-2,3-dihydro-1H-indene-5-carbonitrile]
< 100 | N#Cc1cccc2c1[C@@H](Oc1ccc3[nH]nc(-c4cnco4)c3c1)CC2 (single isomer, unassigned) [Example 37, enantiomer 2, 3-((3-(Oxazol-5-yl)-1H-indazol-5-yl)oxy)-2,3-dihydro-1H-indene-4-carbonitrile]
< 100 | N#Cc1ccc2c(c1)CCC[C@@H]2Oc1ccc2[nH]nc(-c3ccnc(N4CCOCC4)c3)c2c1 (single isomer, unassigned) [Example 39, enantiomer 2, 5-((3-(2-Morpholinopyridin-4-yl)-1H-indazol-5-yl)oxy)-5,6,7,8-tetrahydronaphthalene-2-carbonitrile]
< 100 | COc1cc(-c2n[nH]c3ccc(N[C@H]4CCc5cc(C#N)ccc54)cc23)ccn1 (single isomer, unassigned) [Example 40, enantiomer 2, 1-((3-(2-Methoxypyridin-4-yl)-1H-indazol-5-yl)amino)-2,3-dihydro-1H-indene-5-carbonitrile]
< 100 | N#Cc1cc2c(nn1)[C@@H](Oc1ccc3[nH]nc(-c4cnco4)c3c1)CC2 (single isomer, unassigned) [Example 41, enantiomer 2, 7-((3-(Oxazol-5-yl)-1H-indazol-5-yl)oxy)-6,7-dihydro-5H-cyclopenta[c]pyridazine-3-carbonitrile]
< 100 | N#Cc1ccc2c(c1)CC(F)(F)[C@@H]2Nc1ccc2[nH]nc(-c3cnco3)c2c1 (single isomer, unassigned) [Example 42, enantiomer 2, 2,2-Difluoro-1-((3-(oxazol-5-yl)-1H-indazol-5-yl)amino)-2,3-dihydro-1H-indene-5-carbonitrile]
< 100 | N#Cc1cnc2c(c1)C1CC1[C@@H]2Nc1ccc2[nH]nc(-c3cnco3)c2c1 (single isomer, unassigned) [Example 48, enantiomer 2, 6-((3-(Oxazol-5-yl)-1H-indazol-5-yl)amino)-4b,5,5a,6-tetrahydrocyclopropa[3,4]cyclopenta[1,2-b]pyridine-3-carbonitrile]
< 100 | N#Cc1ccc2c(c1F)CC[C@@H]2Oc1ccc2[nH]nc(-c3cnn(C(F)F)c3)c2c1 (single isomer, unassigned) [Example 51, enantiomer 2, 1-((3-(1-(Difluoromethyl)-1H-pyrazol-4-yl)-1H-indazol-5-yl)oxy)-4-fluoro-2,3-dihydro-1H-indene-5-carbonitrile]
